# Assay results as given in patent publication US11564912B2, “Methods for treating irritable bowel syndrome (IBS)” (Salix Pharmaceuticals, Inc., priority 2008, dated 2023).
# Several values for one entry are separate records, joined by “and”; a condition that tells them apart may be missing. Equal values may be shown once.
# System: subjects with dIBS
# Test: Study of rifaximin BID in subjects with dIBS: adequate relief of IBS symptoms and bloating
# Format: in vivo, human
# Conditions: for Percentage of Subjects with Adequate Relief of Bloating Symptom / Percentage of Subjects with Adequate Relief of IBS Symptoms: RFX 550 mg BID 14 days, N = 191, ITT, at least two of the final three weeks of treatment phase (Weeks 1 to 4); for Adequate Relief of Bloating, Post Treatment: Failures / Adequate Relief of Bloating, Post Treatment: Success / Adequate Relief of Bloating, Post Treatment: Failure: RFX 550 2 w (N = 54); for Patients with adequate relief of bloating / Patients with adequate relief of global IBS symptoms: rifaximin 550 mg twice daily 14 days
# Description: This example relates to a study of rifaximin in subjects with dIBS. […] There were two measures of efficacy assessed. Subjects were questioned on the relief of overall IBS symptoms and bloating. […] The analyses defined success as a “yes” response to questions regarding adequate relief.
# All subpopulations in the study responded to therapy. Baseline severity was determined using 7-point Lickert scales during screening for Abdominal Pain/Discomfort and Bloating, and the number, type (normal, hard, loose) and urgency of bowel movements.
# Duration of effect was assessed in a follow-up period. Subjects that responded in the 4 week treatment period were followed for an additional 3 months.
# The effect of treatment on the percentage of subjects who reported adequate relief of IBS and bloating symptoms for at least two of the final three weeks during the treatment phase (Weeks 1 to 4) is shown in Tables 3-5 and FIGS. 4-6 below.
# Two measures of efficacy were assessed independently. The first was the proportion of subjects who provided a ‘yes’ response to the weekly SGA question: “In the past 7 days, have you had adequate relief of your IBS symptoms? (yes/no)”. The second endpoint was the proportion of subjects who provide a ‘yes’ response to the weekly individual symptom question: “In the past 7 days, have you had adequate relief of your symptom of bloating? (yes/no)”. Durability was based on the proportion of subjects that had adequate relief over the entire treatment phase.
# It is reported herein that the severity of baseline symptoms of abdominal pain and bloating influenced the response to rifaximin treatment. The co-primary endpoints in this analysis assessed weekly yes/no responses to questions regarding adequate relief of global IBS symptoms and IBS-associated bloating. Severity of baseline IBS symptoms was evaluated as a potential confounder of clinical response and was categorized as mild/moderate or severe based on a mean score of ≤4 vs. >4 (on a 7-point scale) for bloating and abdominal pain.
# The Weekly yes/no responses to questions regarding adequate relief of global IBS symptoms and IBS-associated bloating were assessed. Clinical response was defined as adequate relief for 2 of the final 3 treatment weeks (wk 2, 3, or 4). Severity of baseline IBS symptoms was evaluated as a potential confounder of clinical response and was categorized as mild/moderate or severe based on a mean score of ≤4 versus >4 (on a 7-point scale (0=not bothersome; 6=very bothersome)) for bloating and abdominal pain.
# [1] = RFX 550 mg BID vs placebo, ITT, listed as RFX
# [2] = RFX 550 mg BID, responders followed through week 16
# [3] = patients with mild/moderate abdominal pain at baseline
# [4] = patients with mild/moderate bloating at baseline
substance,measurement,setting,value
"(2S,16Z,18E,20S,21S,22R, 23R,24R,25S,26S,27S,28E)-5,6,21,23,25 Pentahydroxy-27-methoxy -2,4,11,16,20,22,24,26-octamethyl-2,7-(epoxypentadeca-(1,11,13)trienimino)benzofuro (4,5-e) pyrido(1,2,-a) benzimidazole-1,15(2H)-dione,25-acetate [Rifaximin]",Adequate Relief of Bloating at the End of the Treatment Phase: Success,"Male, RFX 550 2 w (N = 191)",25 (46.3%) n (%)
same,Adequate Relief of IBS Symptoms at the End of the Treatment Phase: Failure,"Male, RFX 550 2 w (N = 191)",25 (46.3%) n (%)
same,Adequate Relief of IBS Symptoms at the End of the Treatment Phase: Success,"Male, RFX 550 2 w (N = 191)",29 (53.7%) n (%)
same,"odds ratio, Adequate Relief of Bloating at the End of the Treatment Phase","Male, RFX 550 2 w vs. PBO","Comparison of RFX 550 2 w vs. PBO p-value: 0.0802, odds ratio: 2.148 (0.912, 5.057)"
same,"odds ratio, Adequate Relief of IBS Symptoms at the End of the Treatment Phase","Male, RFX 550 2 w vs. PBO","Comparison of RFX 550 2 w vs. PBO p-value: 0.0326, odds ratio: 2.511 (1.079, 5.842)"
same,Adequate Relief of Bloating at the End of the Treatment Phase: Failure,"Male, RFX 550 4 w (N = 98)",16 (72.7%) n (%)
same,Adequate Relief of Bloating at the End of the Treatment Phase: Success,"Male, RFX 550 4 w (N = 98)",6 (27.3%) n (%)
same,Adequate Relief of IBS Symptoms at the End of the Treatment Phase: Failure,"Male, RFX 550 4 w (N = 98)",15 (68.2%) n (%)
same,Adequate Relief of IBS Symptoms at the End of the Treatment Phase: Success,"Male, RFX 550 4 w (N = 98)",7 (31.8%) n (%)
same,Percentage of Subjects with Adequate Relief of Bloating Symptom,,46%
same,Percentage of Subjects with Adequate Relief of IBS Symptoms,,52%
same,Percentage of Subjects with Adequate Relief of Bloating Symptom,listed as RFX,46.1%
same,Percentage of Subjects with Adequate Relief of IBS Symptoms,listed as RFX,52.4%
same,"Odds Ratio Estimate, Number of Weeks with Adequate Relief of Bloating Symptoms","RFX 550 mg BID vs placebo, ITT",1.57
same,"Odds Ratio Estimate, Number of Weeks with Adequate Relief of IBS Symptoms","RFX 550 mg BID vs placebo, ITT",1.54
same,"Odds Ratio Estimate, Adequate Relief of Bloating Symptom",[1],1.6 and 1.58
same,"Odds Ratio Estimate, Adequate Relief of IBS Symptoms",[1],1.6
same,Adequate relief of IBS symptoms during post-treatment follow-up,[2],62.3%
same,Adequate relief of the symptom of bloating during post-treatment follow-up,[2],59.3%
same,"Adequate Relief of Bloating, Post Treatment: Failures",Week 6,5 (9.3%) n (%)
same,"Adequate Relief of Bloating, Post Treatment: Success",Week 6,49 (90.7%) n (%)
same,"odds ratio, Adequate Relief of Bloating, Post Treatment","Week 6, RFX 550 2 w vs. PBO","Comparison of RFX 550 2 w vs. PBO p-value: 0.1303, odds ratio: 3.840"
same,"Adequate Relief of Bloating, Post Treatment: Failures",Week 7,9 (16.7%) n (%)
same,"Adequate Relief of Bloating, Post Treatment: Success",Week 7,45 (83.3%) n (%)
same,"odds ratio, Adequate Relief of Bloating, Post Treatment","Week 7, RFX 550 2 w vs. PBO","Comparison of RFX 550 2 w vs. PBO p-value: 0.1311, odds ratio: 2.931"
same,"Adequate Relief of Bloating, Post Treatment: Failures",Week 8,7 (13.0%) n (%)
same,"Adequate Relief of Bloating, Post Treatment: Success",Week 8,47 (87.0%) n (%)
same,"odds ratio, Adequate Relief of Bloating, Post Treatment","Week 8, RFX 550 2 w vs. PBO","Comparison of RFX 550 2 w vs. PBO p-value: 0.2858, odds ratio: 2.107"
same,"Adequate Relief of Bloating, Post Treatment: Failures",Week 9,15 (27.8%) n (%)
same,"Adequate Relief of Bloating, Post Treatment: Success",Week 9,39 (72.2%) n (%)
same,"odds ratio, Adequate Relief of Bloating, Post Treatment","Week 9, RFX 550 2 w vs. PBO","Comparison of RFX 550 2 w vs. PBO p-value: 0.0814, odds ratio: 2.737"
same,"Adequate Relief of Bloating, Post Treatment: Failures",Week 10,15 (27.8%) n (%)
same,"Adequate Relief of Bloating, Post Treatment: Success",Week 10,39 (72.2%) n (%)
same,"odds ratio, Adequate Relief of Bloating, Post Treatment","Week 10, RFX 550 2 w vs. PBO","Comparison of RFX 550 2 w vs. PBO p-value: 0.0217, odds ratio: 3.828"
same,"Adequate Relief of Bloating, Post Treatment: Failures",Week 11,19 (35.2%) n (%)
same,"Adequate Relief of Bloating, Post Treatment: Success",Week 11,35 (64.8%) n (%)
same,"odds ratio, Adequate Relief of Bloating, Post Treatment","Week 11, RFX 550 2 w vs. PBO","Comparison of RFX 550 2 w vs. PBO p-value: 0.0398, odds ratio: 3.115"
same,"Adequate Relief of Bloating, Post Treatment: Failure",Week 12,18 (33.3%) n (%)
same,"Adequate Relief of Bloating, Post Treatment: Success",Week 12,36 (66.7%) n (%)
same,"odds ratio, Adequate Relief of Bloating, Post Treatment","Week 12, RFX 550 2 w vs. PBO","Comparison of RFX 550 2 w vs. PBO p-value: 0.0596, odds ratio: 2.891"
same,"Adequate Relief of Bloating, Post Treatment: Failure",Week 13,21 (38.9%) n (%)
same,"Adequate Relief of Bloating, Post Treatment: Success",Week 13,33 (61.1%) n (%)
same,"odds ratio, Adequate Relief of Bloating, Post Treatment","Week 13, RFX 550 2 w vs. PBO","Comparison of RFX 550 2 w vs. PBO p-value: 0.0142, odds ratio: 4.187"
same,"Adequate Relief of Bloating, Post Treatment: Failure",Week 14,20 (37.0%) n (%)
same,"Adequate Relief of Bloating, Post Treatment: Success",Week 14,34 (63.0%) n (%)
same,"odds ratio, Adequate Relief of Bloating, Post Treatment","Week 14, RFX 550 2 w vs. PBO","Comparison of RFX 550 2 w vs. PBO p-value: 0.0121, odds ratio: 4.230"
same,"Adequate Relief of Bloating, Post Treatment: Failure",Week 15,23 (42.6%) n (%)
same,"Adequate Relief of Bloating, Post Treatment: Success",Week 15,31 (57.4%) n (%)
same,"odds ratio, Adequate Relief of Bloating, Post Treatment","Week 15, RFX 550 2 w vs. PBO","Comparison of RFX 550 2 w vs. PBO p-value: 0.0391, odds ratio: 3.323"
same,"Adequate Relief of Bloating, Post Treatment: Failure",Week 16,22 (40.7%) n (%)
same,"Adequate Relief of Bloating, Post Treatment: Success",Week 16,32 (59.3%) n (%)
same,"odds ratio, Adequate Relief of Bloating, Post Treatment","Week 16, RFX 550 2 w vs. PBO","Comparison of RFX 550 2 w vs. PBO p-value: 0.0212, odds ratio: 3.700"
same,Treatment effect (Bloating),dIBS Type: aIBS,"31.4%*, 31.4%"
same,Treatment effect (IBS Sx),dIBS Type: aIBS,"31.4%*, 31.4%"
same,Treatment effect (Bloating),dIBS Type: dIBS only,4.5%
same,Treatment effect (IBS Sx),dIBS Type: dIBS only,6.3%
same,Patients with adequate relief of bloating,[3],44%
same,Patients with adequate relief of global IBS symptoms,[3],50%
same,Patients with adequate relief of bloating,[4],47%
same,Patients with adequate relief of global IBS symptoms,[4],56%
